Columns and labels:
Cytochrome P450 2C9 = Cytochrome P450 2C9 (Homo sapiens, UniProt P11712); test: Inhibition of recombinant CYP2C9 (unknown origin); assay type: ADME
[1] = Half life in rat at 2 mg/kg, iv; assay type: ADME, organism-based; details: in vivo
[2] = Total AUC in rat at 4 mg/kg, po; assay type: ADME, organism-based; design: dose 4 mg/kg, route oral, time AUCmax; details: in vivo
Mus musculus [3] = test: Suppression of IL-22 RNA expression in skin region of mouse model of IL-23 induced acanthosis model of psoriasis at 10 mg/kg, po BID for 10 days measured every other day relative to control; assay type: functional; details: 240 h
[4] = Half life in dog at 1 mg/kg, iv; assay type: ADME, organism-based, Canis lupus familiaris; details: in vivo
[5] = Permeability across apical to basolateral side in human Caco2 cells; assay type: ADME, cell-based; details: Caco-2, read-out: permeability
Mus musculus [6] = test: Suppression of IL-22 RNA expression in skin region of mouse model of IL-23 induced acanthosis model of psoriasis at 30 mg/kg, po BID for 10 days measured every other day relative to control; assay type: functional; details: 240 h
Cytochrome P450 2D6 = Cytochrome P450 2D6 (Homo sapiens, UniProt P10635); test: Inhibition of recombinant CYP2D6 (unknown origin); assay type: ADME
Mus musculus [7] = test: Suppression of IL-22 RNA expression in skin region of mouse model of IL-23 induced acanthosis model of psoriasis at 3 mg/kg, po BID for 10 days measured every other day relative to control; assay type: functional; details: 240 h
[8] = biological target: T1, Oxysterols receptor LXR-alpha (Homo sapiens, UniProt Q13133); test: Activity at LXRalpha (unknown origin)
T1 sequence (Q13133 whole entry): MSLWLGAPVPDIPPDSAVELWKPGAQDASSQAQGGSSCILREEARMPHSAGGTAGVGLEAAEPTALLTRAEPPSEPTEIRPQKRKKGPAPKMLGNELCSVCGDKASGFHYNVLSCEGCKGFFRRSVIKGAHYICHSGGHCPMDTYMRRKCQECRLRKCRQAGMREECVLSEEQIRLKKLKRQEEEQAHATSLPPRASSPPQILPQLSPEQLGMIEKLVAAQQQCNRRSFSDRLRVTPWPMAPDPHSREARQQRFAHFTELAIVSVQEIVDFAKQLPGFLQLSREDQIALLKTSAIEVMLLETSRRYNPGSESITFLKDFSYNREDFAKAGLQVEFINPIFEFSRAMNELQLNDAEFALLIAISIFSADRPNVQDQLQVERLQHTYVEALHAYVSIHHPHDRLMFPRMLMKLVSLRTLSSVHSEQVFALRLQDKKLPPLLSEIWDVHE

[9] = biological target: T2, Oxysterols receptor LXR-beta (Homo sapiens, UniProt P55055); test: Agonist activity at LXRbeta (unknown origin) by Gal4-Luc reporter gene assay
T2 sequence (P55055 whole entry): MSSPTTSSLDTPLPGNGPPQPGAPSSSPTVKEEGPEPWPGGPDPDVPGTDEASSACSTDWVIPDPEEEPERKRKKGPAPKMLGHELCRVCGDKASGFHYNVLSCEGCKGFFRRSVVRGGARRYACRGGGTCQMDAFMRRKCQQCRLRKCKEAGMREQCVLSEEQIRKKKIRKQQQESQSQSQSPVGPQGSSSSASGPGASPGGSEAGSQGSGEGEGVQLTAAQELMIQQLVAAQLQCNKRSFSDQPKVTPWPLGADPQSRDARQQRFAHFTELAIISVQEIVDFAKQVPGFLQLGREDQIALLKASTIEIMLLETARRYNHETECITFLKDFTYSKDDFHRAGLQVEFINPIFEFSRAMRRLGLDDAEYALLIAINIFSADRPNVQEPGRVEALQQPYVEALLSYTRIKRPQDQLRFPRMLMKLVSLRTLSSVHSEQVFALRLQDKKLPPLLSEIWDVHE

[10] = biological target: T3, Nuclear receptor ROR-beta (Homo sapiens, UniProt Q92753); test: Activity at RORbeta (unknown origin)
T3 sequence (Q92753 whole entry): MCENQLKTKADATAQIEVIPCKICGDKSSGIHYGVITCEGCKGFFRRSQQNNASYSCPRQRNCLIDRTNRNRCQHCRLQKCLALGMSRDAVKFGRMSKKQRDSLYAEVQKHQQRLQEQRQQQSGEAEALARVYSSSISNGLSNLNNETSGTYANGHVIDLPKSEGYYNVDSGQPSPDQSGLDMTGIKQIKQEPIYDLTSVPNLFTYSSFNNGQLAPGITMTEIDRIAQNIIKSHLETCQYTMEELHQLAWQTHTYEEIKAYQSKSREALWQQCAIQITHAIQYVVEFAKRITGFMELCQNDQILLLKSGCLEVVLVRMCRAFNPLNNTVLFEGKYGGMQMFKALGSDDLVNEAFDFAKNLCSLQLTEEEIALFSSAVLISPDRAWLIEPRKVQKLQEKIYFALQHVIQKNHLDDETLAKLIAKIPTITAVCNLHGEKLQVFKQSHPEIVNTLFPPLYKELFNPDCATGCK

Mus musculus [11] = test: Suppression of ear thickness in mouse model of IL-23 induced acanthosis model of psoriasis at 30 mg/kg, po BID for 10 days measured every other day relative to anti-IL-23 positive control; assay type: functional
Mus musculus [12] = test: Suppression of ear thickness in mouse model of IL-23 induced acanthosis model of psoriasis at 10 mg/kg, po BID for 10 days measured every other day relative to anti-IL-23 positive control; assay type: functional
[13] = biological target: T4, Nuclear receptor ROR-alpha (Homo sapiens, UniProt P35398); test: Activity at RORalpha (unknown origin)
T4 sequence (P35398 whole entry): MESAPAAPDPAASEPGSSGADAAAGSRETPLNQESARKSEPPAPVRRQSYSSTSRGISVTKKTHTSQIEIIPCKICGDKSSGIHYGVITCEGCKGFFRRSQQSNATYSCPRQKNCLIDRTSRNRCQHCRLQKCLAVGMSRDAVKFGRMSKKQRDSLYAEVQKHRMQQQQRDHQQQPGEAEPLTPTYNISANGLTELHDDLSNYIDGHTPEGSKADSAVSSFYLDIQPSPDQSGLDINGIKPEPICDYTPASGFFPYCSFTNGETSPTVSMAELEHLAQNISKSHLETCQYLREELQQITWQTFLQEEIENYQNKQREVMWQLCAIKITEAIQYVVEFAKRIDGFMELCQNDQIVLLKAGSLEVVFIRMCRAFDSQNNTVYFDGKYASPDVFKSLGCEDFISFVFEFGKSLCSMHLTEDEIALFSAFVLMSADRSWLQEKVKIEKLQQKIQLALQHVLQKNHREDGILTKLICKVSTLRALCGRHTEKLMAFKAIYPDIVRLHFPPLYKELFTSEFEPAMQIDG

[14] = biological target: T3, Nuclear receptor ROR-beta; test: Agonist activity at RORbeta (unknown origin) by Gal4-Luc reporter gene assay
[15] = Volume of distribution at steady state in mouse at 2 mg/kg, iv; assay type: ADME, organism-based; details: in vivo, read-out: Vdss
[16] = Total AUC in dog at 1 mg/kg, po; assay type: ADME, organism-based, Canis lupus familiaris; design: dose 1 mg/kg, route oral, time AUCmax; details: in vivo
[17] = Clearance in mouse at 2 mg/kg, iv; assay type: ADME, organism-based; details: in vivo
Mus musculus [18] = test: Suppression of ear thickness in mouse model of IL-23 induced acanthosis model of psoriasis at 10 mg/kg, po BID for 10 days measured every other day relative to control; assay type: functional; details: 240 h
[19] = Cmax in rat at 4 mg/kg, po; assay type: ADME, organism-based; design: dose 4 mg/kg, route oral; details: in vivo

Sequence of Cytochrome P450 2C9 (P11712 whole entry): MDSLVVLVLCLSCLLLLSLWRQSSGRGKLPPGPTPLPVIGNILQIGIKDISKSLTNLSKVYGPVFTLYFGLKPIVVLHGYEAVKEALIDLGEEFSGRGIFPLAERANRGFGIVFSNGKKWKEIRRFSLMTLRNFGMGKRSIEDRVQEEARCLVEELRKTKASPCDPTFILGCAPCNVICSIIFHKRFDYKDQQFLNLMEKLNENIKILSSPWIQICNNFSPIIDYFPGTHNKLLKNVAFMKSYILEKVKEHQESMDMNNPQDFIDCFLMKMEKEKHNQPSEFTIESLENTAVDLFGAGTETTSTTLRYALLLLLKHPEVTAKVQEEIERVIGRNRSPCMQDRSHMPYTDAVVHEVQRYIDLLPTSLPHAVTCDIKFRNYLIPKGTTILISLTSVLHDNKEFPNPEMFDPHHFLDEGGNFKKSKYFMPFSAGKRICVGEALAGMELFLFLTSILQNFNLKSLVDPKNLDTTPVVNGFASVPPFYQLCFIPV
Sequence of Cytochrome P450 2D6 (P10635 whole entry): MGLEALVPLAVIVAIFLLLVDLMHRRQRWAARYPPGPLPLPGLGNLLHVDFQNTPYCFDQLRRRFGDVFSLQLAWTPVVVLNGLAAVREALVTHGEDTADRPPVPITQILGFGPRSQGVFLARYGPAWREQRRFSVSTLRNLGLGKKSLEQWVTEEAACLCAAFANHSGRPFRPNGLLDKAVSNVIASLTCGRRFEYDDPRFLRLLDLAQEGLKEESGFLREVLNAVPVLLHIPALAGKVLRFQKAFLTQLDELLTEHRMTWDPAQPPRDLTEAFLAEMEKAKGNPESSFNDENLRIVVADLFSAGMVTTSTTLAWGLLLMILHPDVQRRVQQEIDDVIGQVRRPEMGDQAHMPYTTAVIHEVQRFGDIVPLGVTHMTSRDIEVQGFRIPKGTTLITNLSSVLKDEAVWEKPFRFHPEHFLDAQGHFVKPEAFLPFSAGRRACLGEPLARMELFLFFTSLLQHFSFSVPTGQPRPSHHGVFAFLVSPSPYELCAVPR

- IC50 (Cytochrome P450 2C9): 10 µM
- half-life [1]: 7 h
- AUC [2]: 17 µM·h
- half-life [4]: 87 h
- Papp A→B [5]: 13 ×10⁻⁶ cm/s
- IC50 (Cytochrome P450 2D6): > 20 µM
- IC50 [8]: > 10 µM
- EC50 [9]: > 7.5 µM
- IC50 [10]: > 10 µM
- IC50 [13]: > 10 µM
- EC50 [14]: > 10 µM
- Vd [15]: 2.7 L/kg
- AUC [16]: 78 µM·h
- clearance [17]: 1.9 mL/min/kg
- Cmax [19]: 1100 nM
SMILES: O=C(N1CC[C@@]2(S(=O)(=O)c3ccc(F)cc3)c3ccc(C(F)(C(F)(F)F)C(F)(F)F)cc3CC[C@@H]12)C1(O)CCS(=O)(=O)CC1
- inhibition in vivo at 10 mg/kg (Mus musculus [3]): 92%
- inhibition in vivo at 30 mg/kg (Mus musculus [6]): 97%
- inhibition in vivo at 3 mg/kg (Mus musculus [7]): 76%
- Efficacy (Mus musculus [11]): 98%
- Efficacy (Mus musculus [12]): 88%
- inhibition in vivo at 10 mg/kg (Mus musculus [18]): 51%
